Results from patent US20260315451A1, “MEDICINE FOR TREATING CANCER” (SCIENCE TECHNOLOGY INTERACT CO., LTD., priority 2022, published 2026).

Key:
Type in all cases: cell-based, human
[1] = system: γ-H2AX, a marker of DNA double-strand break, in HeLa cells; assay: γ-H2AX intranuclear foci after X-ray irradiation (DNA double-strand break repair, immunostaining; Example 3); conditions: drug 30 min before 1.5 Gy X-ray, 24 h after irradiation, FIG. 3
Protocol: After cell seeding, Nicaraven was added. After 30 minutes, the cells were irradiated with 1.5 Gy of X-ray, and after 2 hours and 24 hours, the cells were fixed and immunostained with an anti-γ-H2AX antibody.
Cells in which five or more γ-H2AX intranuclear foci were observed were counted, and the ratio was calculated and represented in a graph. Respective cells in which less than 5, 5 or more and less than 10, 10 or more and less than 20, and 20 or more γ-H2AX intranuclear foci were observed were counted, and the ratio was calculated and represented in a graph (FIG. 3D).

KYSE270 cells = assay: Cell viability of KYSE270 esophageal cancer cells with siRNA of control or RAD51 (Example 5); conditions: siRNA of RAD51, drug added 24 h later, 5 days culture, FIG. 6B
Protocol: KYSE270 cells and KYSE30 cells (human esophageal squamous cell carcinoma cell line) were purchased from JCRB Cell Bank, National Institutes of Biomedical Innovation, Health and Nutrition (Osaka, Japan). KYSE270 cells and KYSE30 cells were cultured in a medium in which RPMI1640 and Ham's F12 medium (both of which were manufactured by FUJIFILM Wako Pure Chemical Corporation, Osaka, Japan) were mixed in equal amounts and 5% FBS was added at 37° C. in the presence of 5% CO2.
(§1) A stock solution of Nicaraven was prepared by dissolving Nicaraven in DMEM medium at a final concentration of 40 mM and sterilizing the solution through a filter. Olaparib (Adooq Bioscience, Irvine, CA, USA) was prepared as a stock solution of Olaparib in DMSO (FUJIFILM Wako Pure Chemical Corporation, Osaka, Japan) at a final concentration of 50 mM. […]
FIG. 6A. Protocol of an experiment in which cell viability under Olaparib, Nicaraven or Edaravone treatment on cells having reduced homologous recombination activity was analyzed. siRNA of control or RAD51 was introduced into esophageal cancer cells KYSE270 cells, and 24 hours later, either Olaparib or Nicaraven was added. After 5 days of culture, cell viability was measured.

KYSE30 cells = assay: Cell viability of KYSE30 esophageal cancer cells with siRNA of RAD51 (Example 5); conditions: siRNA of RAD51, drug added 24 h later, compared with the control, FIG. 7
HeLa cells = assay: Cell viability of HeLa cells with siRNA of control, BRCA1 or RAD51 (drug sensitivity test, Presto Blue; Example 1); conditions: siRNA of BRCA1 or RAD51, drug added 24 h later, 96 h culture, FIG. 1B/1C
Protocol: HeLa cells (human cervical cancer cell line) were purchased from ATCC (Manassas, VA, USA). HeLa cells were cultured in DMEM medium (Nissui Pharmaceutical Co., Ltd., Tokyo, Japan) supplemented with 8% Fetal Bovine Serum (FBS) (Biowest Inc., Nuaille, France) and 3% L-glutamine at 37° C. in the presence of 5% CO2.
as §1
HeLa cell suspension adjusted to 5000 cells/ml was seeded in a 96 well plate at 100 μl/well, and the next day, siRNA was introduced, followed by addition of Olaparib or Nicaraven. One hundred twenty hours after gene introduction and Olaparib addition, Hela cells were replaced in a medium to which Presto Blue assay (Thermo-Fisher Scientific, Waltham, MA, USA) had been added so as to have a final concentration of 5%, followed by reaction in the presence of 5% CO2 at 37° C. for 1 hour, and then fluorescence was measured under conditions of an excitation wavelength of 520 nm and a fluorescence wavelength of 580 to 640 nm using GloMax (registered trademark) Explorer Multimode Microplate Reader (Promega, Madison, WI, USA). […]

[2] = system: homologous recombination activity in HeLa cells; assay: Homologous recombination activity (ASHRA, knock-in efficiency by quantitative PCR; Example 2); conditions: control cells and cells with BRCA1 and RAD51 expression suppressed; 48 h culture with drug; FIG. 2B
Excerpt: FIG. 5 illustrates an outline of a method for measuring homologous recombination repair (HR) activity (Assay for site-specific HR activity (ASHRA)) performed in Examples. In this method, a CRISPR/Cas9 system used for genome editing as a site-specific DNA cleaving enzyme is used to create a site-specific DNA double strand break in a target endogenous gene. Then, a fusion gene of a reporter and a target gene is generated by HR between a DNA fragment as a substrate for HR containing the reporter and the target endogenous gene. The production efficiency of the fusion gene of a reporter and a target gene is quantified as the HR repair activity of cell in the cell. For the method for detecting a fusion gene, flow cytometry, Western blotting, quantitative PCR, or the like can be used while changing the reporter. Step 1: Introduce Cas9/guide RNA expression vector and donor vector into cells. […] Step 4: Detecting knock-in efficiency of marker ((1) Western blotting, (2) flow cytometry, (3) quantitative PCR). […]
HeLa cells were seeded on a 3.5 cm dish, and the next day, siRNA was introduced. […] Genome quantitative PCR was performed using Go Taq qPCR master mix (Promega, Madison, WI, USA), measurement was done using CFX96 Touch Real-time PCR detection system (BioRad, Hercules, CA, USA), and knock-in efficiency was calculated by ΔΔCt method. […]

SMILES	DNA damage remaining (γ-H2AX intranuclear foci), RAD51-suppressed versus control ([1]; RAD51 expression suppressed)	DNA damage remaining (γ-H2AX intranuclear foci), control and RAD51-suppressed cells ([1]; control and RAD51-suppressed)	cell viability when expression of RAD51 is suppressed (KYSE270 cells)	cell viability in cells in which expression of RAD51 was suppressed (KYSE30 cells)	cell viability when expression of BRCA1 and RAD51 was suppressed (HeLa cells)	homologous recombination activity [2]
CC(CNC(=O)c1cccnc1)NC(=O)c1cccnc1 (centres unmarked) [Nicaraven]	DNA damage remained more remarkably in the state in which the expression of RAD51 was suppressed	caused DNA damage to remain in both the control and the state in which the expression of RAD51 was suppressed	cell viability further decreased	cell viability decreased in cells in which expression of RAD51 was suppressed, as compared with the control	cell viability further decreased	did not affect the homologous recombination ability
O=C(c1cc(Cc2n[nH]c(=O)c3ccccc23)ccc1F)N1CCN(C(=O)C2CC2)CC1 [Olaparib, reference compound]			decreased cell viability in cells in which expression of RAD51 was suppressed, as compared with the control		decreased cell viability in cells in which expression of BRCA1 and RAD51 was suppressed, as compared with the control	
